In patent US9593363B2, “Methods and models for assessing anti-aging benefits of agents” (The Procter & Gamble Company, priority 2012, dated 2017):

Experiments:
Format in all cases: cell-based
[1] = test system: retinoid metabolism gene panel; experiment: ex vivo human skin tissue culture, PCR fold change of retinoid gene panel; conditions: for regulation of CYP26A1, ALDH1A2, RDH10, RARRES1 and LRAT: by Day 7 compared to Day 5, single donor, tRA media, retinol propionate topical (FIG. 6C); for regulation of CRABP2, RARG and CEBPA / regulation of Cyp26B1: day 7, 37° C., tRA media applied, retinol propionate topically applied (FIG. 6C)
Description: FIGS. 6A, 6B, and 6C provide heat maps illustrating the fold change for the gene panel of FIG. 3 over a 7 day time course following media dosing with the tRA and retinol propionate. The cells in FIGS. 6A, 6B, and 6C are cross-hatched in the same way as the cells in FIG. 4 (i.e., see the legend provided in FIG. 4). The tRA was media applied and the retinol propionate was topically applied to the ex-vivo tissue samples (N=6 per material), which were incubated at 37° C. and 50% relative humidity. At the end of 48 hours, 5 days and 7 days, two 4 mm punch biopsies were removed from each of the tissue samples for RNA isolation followed by PCR analysis. […] These genes are all important in retinoic acid-mediated regulation of human skin growth and differentiation.
Referring again to FIGS. 6A, 6B, and 6C, the fold change data from a single donor over a 7 day time course is shown for media application of tRA and topical application of retinol propionate.
(§1) Skin preparation involved preparation of media in advance of the arrival of skin (3× media including 500 ml DMEM plus 15 ml of antibiotic and antimycotics; the 3× referred to 3-fold levels of antibiotics/antimycotics used for the initial hour of incubation; 1× Media: 500 ml DMEM plus 5 ml of antibiotic and antimycotics). The skin arrived with the dermis (fat) side down on sterile DMEM soaked gauze in a sterile culture dish. The culture dish was taped shut and in a biohazard zip-lock baggie on an ice pack in a secondary container.
(§2) On arrival, the skin was removed from the bag and soaked in 3×DMEM media and stored at 4° C. for 1 hour. After 1 hour, the skin was removed from the 3×DMEM and rinsed with sterile 1×PBS. The skin was placed in a clean culture dish containing gauze soaked with 1×DMEM. The sample was put in culture the same day as arrival; though the sample may be stored overnight at 4° C. if desired.
(§3) In preparation for culture, the following were performed on the skin tissue. On a cutting mat, the skin tissue was positioned such that the epidermis was down and the fat was exposed. The fat was removed with a disposable scalpel by carefully grasping one corner of the skin with sterile serrated forceps and scraping the fat away with the blade held at a 45 degree angle to the skin. After the fat was removed, the surgical edges were cut off with a scalpel using a scraper as a straight edge guide and to hold the skin in place. Using the scraper as a guide, the skin was cut into 1.25 cm wide strips using a ruler (such as the one on optionally provided on the cutting mat) to measure the width. The strip was rinsed in a 100 mm culture dish containing 1×PBS. The strips were cut into 1.25 cm squares and placed in a 100 mm culture dish onto 1×DMEM soaked gauze until they were put into culture 30 minutes later (with time points of 15 minutes, 30 minutes, 45 minutes, or an hour being used in various non-limiting examples).
(§4) Culturing involved putting 2.5 ml of media or treatment into each well of a 6-well tissue plate, adding one Millicell® brand culture insert to each well, and putting 100 μl of 1×DMEM on the center of each insert membrane. The skin sample squares were selected randomly and placed into each of the inserts (one skin sample per insert), on top of the media on the membrane. The plates were stored at 33° C. (though an additional non-limiting example would be 37° C. depending on the experiment endpoint). As a control, baseline tissue measurements were collected from excess waste (cryogenics were used for snap freezing). Baseline biopsy collection involved from each tissue piece; one 4 mm punch for MTT; one 4 mm punch (snap frozen in OCT) for fresh histology; One 4 mm punch was fixed in 10% formalin for paraffin embedding and two 4 mm punches (snap frozen in liquid nitrogen) for PCR.
Culture and treatment of the model comprised replicates of n=6 (though replicates of additional quantities may be used such as n=5).

epidermal gene panel = experiment: ex vivo human skin tissue culture, PCR fold change of epidermal gene panel vs untreated control; conditions: 5 day time course, 33° C.; for relative fold change of epidermal gene panel (rank order): 70% relative humidity (FIG. 5A); for regulation of AQP3 / regulation of KRT10 and FLG: 70% relative humidity, tRA media applied, retinol and retinol propionate topically applied, N=6 (FIG. 5A)
Description: Referring to FIG. 5A, a bar graph illustrates the fold change (compared to an untreated control) for the epidermal gene panel of FIG. 3 following media dosing with trans-retinoic acid (tRA), retinol, or retinol propionate (RP) over a 5 day time course. […] The doses were applied over a 5 day time course during which tRA was media applied while retinol and retinol propionate were topically applied to the ex-vivo tissue samples (N=6 per material) incubated at 33° C. and 70% relative humidity. At the end of 5 days, two 4 mm punch biopsies were removed from each of the tissue samples for RNA isolation followed by PCR analysis.
The fold-increase/decrease in expression, versus an untreated control, was determined for the epidermal gene panel set forth in FIG. 3 for ex vivo tissue from a single donor over a 7 day time course incubated at 37° C. at a relative humidity of 55%. The test agents were applied topically.

dermal gene panel = experiment: ex vivo human skin tissue culture, PCR fold change of dermal gene panel vs untreated control
Description: The culturing temperature can also affect the pattern and magnitude of the gene regulation in ex vivo tissue samples. Referring to FIGS. 9A and 9B, heat maps illustrate the fold changes for nine dermal genes for five different donor tissue samples incubated at 33° C. for 7 days and 50% relative humidity and five different donor tissue samples incubated at 37° C. for 7 days at 50% relative humidity. The tissue samples were treated with a media supplied dose of 20 ng/ml of TGFβ-1. […]
Referring to FIG. 18, an olive oil extract, an artichoke leaf extract, and a blend of these extracts were evaluated according to methods described herein. The cells in the table of FIG. 18 are cross-hatched in the same way as the cells in the table of FIG. 4 (i.e., see the legend provided in FIG. 4). The fold-increase/decrease in expression, versus an untreated control, was determined for the dermal gene panel set forth in FIG. 3 for ex vivo tissue from a single donor over a 7 day time course. The skin samples were incubated at a temperature of 37° C. and a relative humidity of 55%. The test agents were applied topically to the skin samples. […] This is another example of identifying actives that may synergistically provide anti-aging benefit.
as §1, §2, §3
as §4, with “Baseline biopsy collection involved from each tissue piece; one 4 mm punch for MTT; one 4 mm punch (snap frozen in OCT) for fresh histology; One 4 mm punch was fixed in 10% formalin for paraffin embedding and two 4 mm punches (snap frozen in liquid nitrogen) for PCR.” left out

TGFβ-2 and TGFβ-3 = experiment: ex vivo human skin tissue culture, PCR fold change of TGFβ-2 and TGFβ-3; conditions: media dosing, 33° C., 55% relative humidity, 4 and 7 days, N=6 (FIG. 4)
Description: FIG. 4 illustrates a heat map of the fold change of some of the genes from FIG. 3 following media dosing of ex vivo tissue samples (N=6 per material) incubated at 33° C. and 55% relative humidity with four materials over a 7 day time course. Cross-hatching is provided in some of the cells of the table in FIG. 4 to indicate statistically significant up-regulation (p value≦0.05 and p value≦0.1) and statistically significant down regulation p value≦0.05 and p value≦0.1). In addition to TGFβ-1, three exogenous materials believed to provide one or more in vivo, anti-aging skin benefits were tested. The three exogenous materials tested were a vitamin B3 compound (i.e., niacinamide), a peptide (i.e., PAL-KT brand peptide (palmitoyl-lysine-threonine)), and an olive oil extract (i.e., OLIVEM 460 brand olive oil extract). Niacinamide is believed to provide a number of cosmetic skin care benefits (see, e.g., Bissett el al. “Niacinamide: A B Vitamin that Improves Aging Facial Skin Appearance” and Draelos “Clinical Situations Conducive to Proactive Skin Health and Anti-Aging Improvement”). […]

[2] = 33° C., 7 days, 50% relative humidity, media 20 ng/ml, five donors (FIG. 9B)

Compound	regulation of CYP26A1, ALDH1A2, RDH10, RARRES1 and LRAT [1]	regulation of CRABP2, RARG and CEBPA ([1]; 50% relative humidity)	regulation of Cyp26B1 ([1]; 50% relative humidity)	relative fold change of epidermal gene panel (rank order) (epidermal gene panel)	regulation of AQP3 (epidermal gene panel)	regulation of KRT10 and FLG (epidermal gene panel)	further results
CCC(=O)OC/C=C(C)/C=C/C=C(C)/C=C/C1=C(C)CCCC1(C)C [retinol propionate]	down-regulated with statistical significance	strongly up-regulate	strongly up-regulated	tRA>retinol>retinol propionate	up-regulated	significantly down-regulated	
CC1=C(/C=C/C(C)=C/C=C/C(C)=C/CO)C(C)(C)CCC1 [retinol]				tRA>retinol>retinol propionate	up-regulated	significantly down-regulated	
CC1=C(/C=C/C(C)=C/C=C/C(C)=C/C(=O)O)C(C)(C)CCC1 [tRA, trans-retinoic acid]	down-regulated with statistical significance	strongly up-regulate	strongly up-regulated	tRA>retinol>retinol propionate	up-regulated	significantly down-regulated	response of retinoid metabolism genes, tRA compared with RP ([1]; 37° C., 50% relative humidity, 48 hours to 7 days (FIGS. 6A-6C)): stronger response
TGFβ-1: endogenous gene stimulative compound, known regulator of dermal matrix genes; used as positive control							regulation of ELN and LOXL2 (dermal gene panel; [2]): did not show statistically significant up-regulation; regulation of FN1, COL1A1 and COL3A1 (dermal gene panel; [2]): significantly up-regulated; statistically significant up-regulation of ELN and LOXL2 across a majority of donors (dermal gene panel; 37° C., 7 days, 50% relative humidity, media 20 ng/ml, five donors (FIG. 9A)): did at 37 °C; regulation of FN1, LOXL2, COL3A1, ELN and LOXL1 (dermal gene panel; 24 hrs, media application 20 ng/ml, single donor, 37° C., 50% relative humidity (FIG. 8A)): significantly regulated; number of statistically significant genes up-regulated at 37° C. versus 33° C. (dermal gene panel; 7 days, 50% relative humidity, media 20 ng/ml, nine dermal genes): increased dramatically; donor tissues with statistically significant up-regulation of at least FN1, COL1A1 and ELN (dermal gene panel; media 20 ng/ml, 11 days, 33° C., 70% relative humidity, eight donor tissues (FIG. 15)): 80%; time of most robust response of dermal genes (dermal gene panel; media application 20 ng/ml, single donor, 37° C., 50% relative humidity, 1 to 7 days (FIG. 8A)): between Day 5 and Day 7; regulation of FN1, COL1A1 and COL3A1 (dermal gene panel; media applied 20 ng/ml, single donor, time course 24 hrs to 7 days (FIG. 2)): increasingly up-regulated; response of dermal genes (dermal gene panel; media supplied (FIGS. 2, 4, 7 and 8)): strong, consistent, up-regulation response
palmitoyl-lysine-threonine [peptide]							regulation of TGFβ-2 and TGFβ-3 (TGFβ-2 and TGFβ-3): up-regulated
